From patent US20080194658A1, “Sterol Carrier Protein-2 Inhibitors for Lowering Cholesterol and Triglyceride Levels in Mammals” (priority 2006, published 2008)

Tests used:
[1] = Growth rate of young rats upon oral administration; assay type: in vivo; settings: young rats starting at 20 days of age, 5 days/week at various dosages (FIG. 1)
Description: FIG. 1 is a graph showing growth rates of young rats (starting at 20 days of age) upon oral administration of N-(4-{[4-(3,4-dichlorophenyl)-1,3-thiazol-2-yl]amino}phenyl)acetamide hydrobromide, whereby the effect on growth rate was insignificant, whereby the drug was administered 5 days/week at various dosages, whereby weight was measured every day during the treatment regimen (Monday-Friday), whereby the data is shown in three groups to compensate for variations in growth rate as the animals aged, whereby the listed days represent the number of days after the initial first administration, and whereby the bars represent the average growth rate±Standard deviation.
Mammalian species (i.e., rats) were used. Rats were fed a standard diet (3.5% fat, <0.02% cholesterol). Weaned rats were grouped into treated and controls. Rats were chosen as the testing animal so that 0.5 ml of blood samples could be taken for testing. Rats were anesthetized first in an induction chamber with isoflurane and oxygen (100%). Once anesthetized rats were positioned dorsally for the blood draw from the jugular or ventral tail vein. […]
N-(4-{[4-(3,4-dichlorophenyl)-1,3-thiazol-2-yl]amino}phenyl)acetamide hydrobromide was mixed with DMSO (solvent) in increasing dosages, which were feed to laboratory rats. […] Daily observations were recorded concerning (i) weight changes and (ii) mortality. […]

rats [2] = assay: Total serum cholesterol levels in rats; assay type: in vivo, rat; settings: oral, varying concentrations for 5 days, all treated animals (FIG. 2)
Description: (§1) Mammalian species (i.e., rats) were used. Rats were fed a standard diet (3.5% fat, <0.02% cholesterol). Weaned rats were grouped into treated and controls. Rats were chosen as the testing animal so that 0.5 ml of blood samples could be taken for testing. Rats were anesthetized first in an induction chamber with isoflurane and oxygen (100%). Once anesthetized rats were positioned dorsally for the blood draw from the jugular or ventral tail vein. An anesthetic nose-cone was placed on the nose of the rat allowing isoflurane and oxygen (100%) to be delivered through a Bain circuit. After obtaining blood, the rats were allowed to recover in a shoebox cage with a heat lamp positioned over the top of the cage. Once the rats were awake and moving freely around the recovery cage, they are placed back in their normal cages. Total time for procedure is ˜15-20 minutes per rat.
N-(4-{[4-(3,4-dichlorophenyl)-1,3-thiazol-2-yl]amino}phenyl)acetamide hydrobromide was mixed with DMSO (solvent) in increasing dosages, which were feed to laboratory rats. Rats received the preparations via oral drops. Daily observations were recorded concerning (i) weight changes and (ii) mortality. Blood samples were taken every three weeks for testing cholesterol levels and for testing Alanine Aminotransferase (ALT) for liver function. […]

rats [3] = assay: Serum ALT levels in rats (liver function); assay type: in vivo; settings: oral, various dosages for 5 days (FIG. 3)
Description: as §1
N-(4-{[4-(3,4-dichlorophenyl)-1,3-thiazol-2-yl]amino}phenyl)acetamide hydrobromide was mixed with DMSO (solvent) in increasing dosages, which were feed to laboratory rats. Rats received the preparations via oral drops. Daily observations were recorded concerning (i) weight changes and (ii) mortality. […]
The vertebrate SCP-2 is involved in cholesterol metabolism, therefore, cholesterol homeostasis is advantageously monitored when SCP-2 inhibitors are tested in mammalian species. […]

## Br.CC(=O)Nc1ccc(Nc2nc(-c3ccc(Cl)c(Cl)c3)cs2)cc1 [N-(4-{[4-(3,4-dichlorophenyl)-1,3-thiazol-2-yl]amino}phenyl)acetamide hydrobromide]
[1]
  effect on growth rate: insignificant
Rats [2]
  total serum cholesterol levels: significant decrease
Rats [3]
  serum ALT levels, control (0 mg/kg) vs treated animals: no significant difference
